Test results published in patent US10882826B2, “Quinolinone or quinazolinone comprising antibiofilm compositions, compounds and methods and uses relating thereto” (University College Cork—National University of Ireland, priority 2015, dated 2021).

Legend:
[1] = test system: C. albicans strain SC5314 biofilm; assay: XTT metabolic assay of C. albicans biofilm; type: cell-based, Candida albicans; details: for XTT result, Mean (MeOH control = 1) / Absorbance at 492 nm, Mean (XTT): C. albicans biofilm; for Absorbance at 492 nm, Mean (XTT): test compound 100 μM, 24 hr, MeOH control 0.647, untreated 0.851; for effectiveness against fungal biofilms formed by Candida albicans (in words): summary statement
Description: C. albicans strain SC5314 was sub-cultured from 15% (v/v) glycerol stocks at −80° C. onto Yeast Peptone Dextrose (YPD) medium [1% (w/v) yeast extract, 2% (w/v) peptone and 2% (w/v) dextrose] and incubated at 30° C. overnight.
The test compounds in desiccated form were re-suspended in Methanol to create a 10 mM stock. […]
The ability of some of the compounds detailed in example 1 to disrupt Candida albicans was tested using Confocal Scanning Laser Microscopy and an XTT Metabolic Assay. The XTT assay is a commonly used quantitative method assessing Candida biofilm mass and growth often in response to novel drug therapies.
C. albicans biofilm formation was carried out in 96 well plates by a method of the prior art. Briefly, C. albicans was inoculated into Yeast Nitrogen Base [10% (w/v)] and glucose/maltose [10% (w/v)] and incubated overnight at 30° C. Seeding densities for all subsequent experiments (N=3) were OD600=0.05. Cells were grown in Yeast Nitrogen Base supplemented with 1 M Phosphate buffer and acetyl-D-glucosamine (YNB-NP) along with appropriate volumes of test compound to provide the desired concentration. Cells were cultured in 96 well plates for 1 hr at 37° C. to facilitate yeast attachment. After this incubation, the supernatants were aspirated, the wells washed twice with YNB-NP media, and fresh media with the same concentration of test compound added to the appropriate wells. The plate was incubated for 24 hr at 37° C. The next day, the cultures were aspirated and the wells washed once with YNB-NP media.
C. albicans biofilm quantification was carried out in 96 well plates using a semi-quantitative Tetrazolium salt, 2,3-bis-(2-methoxy-4-nitro-5-sulfophenyl)-2H tetrazolium-5-carboxanilide inner salt (XTT) reduction assay (Hawser, Tunney et al, Antimicrob Agents Chemother. 2004 May; 48(5):1879-81). XTT (0.01 g) was dissolved in sterile water (20 ml) and filter sterilized. 10 μl of Menadione dissolved in Acetone was added to the XTT solution, just before use. The XTT-Menadione Solution (100 μl) was added to each well. The plate was incubated in the dark at 37° C. for up to 2 hr to allow for colour development. The OD492 nm was recorded for each well. Experiments were repeated at least three times, with at least eight technical replicates.
Experiments were first carried out using the test compound at concentration of 100 μM.

[2] = test system: IB3 lung epithelial cells; assay: LDH release cytotoxicity, IB3-1 cells; type: cell-based; details: 100 μM, 16 hr, percentage of 0.1% Triton (100% cytotoxicity), MeOH 3.844
Description: (§1) Lactate dehydrogenase (LDH) release from IB3 lung epithelial cells was assayed as a measure of cytotoxicity using an LDH colorimetric kit (Roche) according to manufacturers' instructions. Briefly, IB3-1 cells were seeded onto 96 well plates and treated with methanol (control) and test compounds (100 μM). Following 16 hr incubation at 37° C. and 5% CO2, supernatants were removed and added to catalyst reaction mixture in a fresh plate and further incubated at 37° C. and 5% CO2 for 30 mins to allow for colour development. After this period, the plate was analysed on an ELISA plate reader at OD490 nm. Cytotoxicity was expressed as a percentage of cells treated with 0.1% (v/v) Triton (100% cytotoxicity).

[3] = test system: P. aeruginosa PAO1 pqsA-pqsA-lacZ strain; assay: Phenazine extraction (phenazine production); type: cell-based; details: PAO1 pqsA-pqsA-lacZ strain, test compounds 10 μM, 24 hr; methanol control 0.080
Description: P. aeruginosa strains, PAO1 and pqsA mutant, containing the chromosomally inserted pqsA-lacZ promoter fusion on plasmid pUC18-mini-Tn7, were sub-cultured from glycerol stocks onto LB agar plates, supplemented with Carbenicillin (200 μg/ml) and X-gal (40 μg/ml), and incubated at 37° C. overnight. Single colonies were inoculated into LB broth (20 ml), supplemented with Carbenicillin (200 μg/ml), and incubated at 37° C., shaking at 180 rpm overnight. For subsequent experiments, the OD600 nm was recorded and a starting OD600 nm of 0.02 was inoculated into fresh LB broth, supplemented with Carbenicillin (200 μg/ml) and incubated at 37° C., shaking at 180 rpm.
(§2) P. aeruginosa strains were cultured as described above for 24 hr, with the addition of test compounds (10 μM). Cultures were centrifuged at 4000 rpm for 10 minutes and the cell free supernatant (5 ml) removed. Chloroform (3 ml) was added, and mixed by vortex. After centrifugation at 4000 rpm for 5 mins, the lower aqueous phase was transferred to 0.2 M HCl (2 ml). Samples were mixed by vortex and centrifuged at 4000 rpm for 5 mins to separate the phases. An aliquot of the top phase (1 ml) was removed and spectrophotmetrically analysed at OD570 nm. Phenazine production was calculated using the following formula: OD570 nm×2×17.072 and the units expressed in μg/ml.
The phenazine production levels and Miller units in the PAO1 pqsA-pqsA-lacZ strain are detailed in table 5.
The virulence of compounds B2, C13 and C15 towards P. aeruginosa was assessed using an analogous method.

mammalian cells = assay: Cytotoxicity towards mammalian cells (summary statement); type: cell-based
Description: as §1, with “cytotoxicity). The results are detailed in table 3:” for “cytotoxicity).”
The above experiments were repeated, testing some compounds against further cell lines (A549, DU145 and HeLa).

Pseudomonus aeruginosa = assay: Virulence of Pseudomonas aeruginosa (summary statement); type: cell-based; details: unlike HHQ and PQS
Description: The virulence of compounds B1, B2, C2, C3, C4, C5, C6, C8 and C11 towards P. aeruginosa was assessed using the following method:
as §2, with “μg/ml. […]” for “μg/ml.”

Compound	XTT result, Mean (MeOH control = 1) ([1]; 10 μM)	XTT result, Mean (MeOH control = 1) ([1]; 50 μM)	XTT result, Mean (MeOH control = 1) ([1]; 100 μM)	Absorbance at 492 nm, Mean (XTT) [1]	effectiveness against fungal biofilms formed by Candida albicans (in words) [1]	% Cytotoxicity, Mean (LDH release) [2] [%]	Phenazine, Mean [3] [µg/mL]	cytotoxicity towards mammalian cells (in words) (mammalian cells)	effect on virulence of Pseudomonus aeruginosa (in words) (Pseudomonus aeruginosa)
CCCCCCCc1nc2ccccc2c(=O)n1N [Compound C2]	0.68	0.38	0.25	0.178	effective	28.94	0.541	reduced cytotoxicity	do not increase the virulence
CCCCCCCc1cc(=O)c2cc(Cl)ccc2[nH]1 [Compound C4]	0.86	0.67	0.58	0.302	effective	15.46	0	reduced cytotoxicity	do not increase the virulence
CCCCCCCc1cc(=O)c2cccc(Cl)c2[nH]1 [Compound C5]	–	–	–	0.242	effective	31.04	0	reduced cytotoxicity	do not increase the virulence
